In publication PMC9405102, “Targeted Modification and Structure-Activity Study of GL-29, an Analogue of the Antimicrobial Peptide Palustrin-2ISb” (Antibiotics, 2022):
Like-named read-outs stand apart in the source and are kept apart here. Where a SMILES comes first, the peptide text is derived from it. Where no end group is shown, it is not given here.

Experiments:
[1] = test system: S. aureus (ATCC CRM 6538); format: cell-based, Staphylococcus aureus
Description: (§1) The MBIC and MBEC assays were performed to measure the inhibition and eradication of bacterial biofilm in the presence of different concentrations of peptides. Gram-positive bacteria were inoculated in Luria–Bertani (LB) broth at 37 °C overnight whereas Gram-negative bacteria were inoculated in tryptic soy broth (TSB), and then sub-cultured until reaching the logarithmic growth phase by measuring the OD values at a wavelength of 550nm. For the MBIC assay, 99 µL of diluted bacterial suspension (5 × 10^5 CFU/mL) was mixed with 1 µL of prepared peptide solutions in the wells of a round-bottomed 96-well plate, achieving the final concentrations from 512 to 1 µM, and then incubated at 37 °C for 24 h in a shaking incubator at 200 revolutions per minute (rpm). After this, the plate was washed twice by PBS and fixed with methanol for 30 min. For MBEC assay, 100 µL of diluted bacterial suspension (5 × 10^5 CFU/mL) was seeded into a round-bottomed 96-well plate and incubated at 37 °C for 24 h in a shaking incubator at 200 rpm to obtain mature biofilm. After this, plates were washed twice by PBS and incubated with different concentrations of peptide solution from 512 to 1 µM at 37 °C for 24 h. Afterwards, the plate was washed twice with PBS and fixed with methanol for 30 min. Then, both MBIC and MBEC plates were stained by 130 μL of 0.1% (g/v) crystal violet solutions for 30 min and washed with PBS until no apparent staining was observed. Evaporating crystal violet stains were dissolved by 33% (v/v) acetic acid, and the absorbance values were measured by a Synergy HT Microplate Reader (BioTek, Minneapolis, MN, USA) set to 595 nm. The minimum concentration that inhibited the formation of biofilm was defined when compared to the negative control group, as the MBIC. The minimum concentration that eradicated the biofilm was defined, when compared to the negative control group, as the MBEC. The biofilm assays were performed in triplicate.

[2] = test system: E. coli (ATCC CRM 8739); format: cell-based, Escherichia coli
Description: as §1

[3] = test system: K. pneumoniae (ATCC CRM 43816); format: cell-based, Klebsiella pneumoniae
Description: as §1

[4] = test system: P. aeruginosa (ATCC CRM 9027); format: cell-based, Pseudomonas aeruginosa
Description: (§2) The antimicrobial activity of the peptides was determined through the minimum inhibitory concentrations (MICs) and the minimum bactericidal concentration (MBCs) using the broth-dilution method in a 96-well plate, as described in the previous study. Six bacteria, including the Gram-positive bacteria, S. aureus (ATCC CRM 6538), MRSA (ATCC CRM 12493) and E. faecalis (NCTC 12697), the Gram-negative bacteria, E. coli (ATCC CRM 8739), K. pneumoniae (ATCC CRM 43816) and P. aeruginosa (ATCC CRM 9027), the yeast, C. albicans (ATCC CRM 10231) and clinical isolates, S. aureus (B042 V2E1 A), MRSA (B038 V1S1 A), E. coli (ATCC BAA-2340) and K. pneumoniae (ATCC BAA-1705) were used in these assays to evaluate the antimicrobial potency of the two peptides by determining their MICs and MBCs. All bacteria were cultured in MHB and the yeast, C. albicans was cultured in YPD broth overnight. Then, the microorganisms were sub-cultured and diluted to the final concentration of 2 × 10^5 CFU/mL to 5 × 10^5 CFU/mL. The Norfloxacin and amphotericin B were used as positive controls for the bacteria and yeast, respectively. The assay was repeated three times, with five replicates at each time.

[5] = test system: P. aeruginosa (ATCC CRM 9027); format: cell-based, Pseudomonas aeruginosa; remark: listed apart in the source
Description: as §1

[6] = test system: C. albicans (ATCC CRM 10231); format: cell-based, Candida albicans
Description: as §2

[7] = test system: K. pneumoniae (ATCC BAA-1705); format: cell-based, Klebsiella pneumoniae
Description: as §2

[8] = test system: K. pneumoniae (ATCC CRM 43816); format: cell-based, Klebsiella pneumoniae; remark: listed apart in the source
Description: as §2

[9] = test system: S. aureus (B042 V2E1 A); format: cell-based, Staphylococcus aureus
Description: as §2

[10] = test system: S. aureus (ATCC CRM 6538); format: cell-based, Staphylococcus aureus; remark: listed apart in the source
Description: as §2

[11] = test system: E. faecalis (NCTC 12697); format: cell-based, Enterococcus faecalis
Description: as §1

[12] = test system: MRSA (ATCC CRM 12493); format: cell-based, methicillin-resistant S. aureus
Description: as §2

[13] = test system: MRSA (B038 V1S1 A); format: cell-based, methicillin-resistant S. aureus
Description: as §2

[14] = test system: E. faecalis (NCTC 12697); format: cell-based, Enterococcus faecalis; remark: listed apart in the source
Description: as §2

[15] = test system: E. coli (ATCC CRM 8739); format: cell-based, Escherichia coli; remark: listed apart in the source
Description: as §2

[16] = test system: E. coli (ATCC BAA-2340); format: cell-based, Escherichia coli
Description: as §2

[17] = KPC-producing resistant strain K. pneumoniae (ATCC BAA-1705)
[18] = clinical isolated strain S. aureus (B042 V2E1 A)
[19] = clinical isolated strain MRSA (B038 V1S1 A)
[20] = KPC-producing resistant strain E. coli (ATCC BAA-2340)

GLWNSIKIA-NH2 [GL-9, GLWNSIKIA-NH2]
512 µM: MBC ([10]; S. aureus (ATCC CRM 6538)) | MIC ([10]; S. aureus (ATCC CRM 6538)) | MIC ([15]; E. coli (ATCC CRM 8739))
> 512 µM: MBC ([15]; E. coli (ATCC CRM 8739))
>512 µM: MBEC ([1]; biofilm eradication, S. aureus (ATCC CRM 6538)) | MBIC ([1]; biofilm formation, S. aureus (ATCC CRM 6538)) | MBEC ([3]; biofilm eradication, K. pneumoniae (ATCC CRM 43816)) | MBIC ([3]; biofilm formation, K. pneumoniae (ATCC CRM 43816)) | MBC ([4]; P. aeruginosa (ATCC CRM 9027)) | MIC ([4]; P. aeruginosa (ATCC CRM 9027)) | MBEC ([5]; biofilm eradication, P. aeruginosa (ATCC CRM 9027)) | MBIC ([5]; biofilm formation, P. aeruginosa (ATCC CRM 9027)) | MBC ([6]; C. albicans (ATCC CRM 10231)) | MIC ([6]; C. albicans (ATCC CRM 10231)) | MBC [7, 17] | MIC [7, 17] | MBC ([8]; K. pneumoniae (ATCC CRM 43816)) | MIC ([8]; K. pneumoniae (ATCC CRM 43816)) | MBC [9, 18] | MIC [9, 18] | MBEC ([11]; biofilm eradication, E. faecalis (NCTC 12697)) | MBIC ([11]; biofilm formation, E. faecalis (NCTC 12697)) | MBC ([12]; MRSA (ATCC CRM 12493)) | MIC ([12]; MRSA (ATCC CRM 12493)) | MBC [13, 19] | MIC [13, 19] | MBC ([14]; E. faecalis (NCTC 12697)) | MIC ([14]; E. faecalis (NCTC 12697)) | MBC [16, 20] | MIC [16, 20]
512/>512 μM: MBEC ([2]; biofilm eradication, E. coli (ATCC CRM 8739)) | MBIC ([2]; biofilm formation, E. coli (ATCC CRM 8739))

GLWNSIKIAGKKLFVNVLDKIR-NH2 [GL-22]
16 µM: MBIC ([2]; ATCC CRM 8739, 24 h) | MBIC ([3]; ATCC CRM 43816, 24 h)
4 µM: MBC ([7]; ATCC BAA-1705) | MIC ([7]; ATCC BAA-1705) | MBC ([8]; ATCC CRM 43816) | MIC ([8]; ATCC CRM 43816) | MBC ([10]; ATCC CRM 6538) | MIC ([10]; ATCC CRM 6538) | MBC ([13]; B038 V1S1 A) | MIC ([13]; B038 V1S1 A) | MBC ([15]; ATCC CRM 8739) | MIC ([15]; ATCC CRM 8739) | MBC ([16]; ATCC BAA-2340)
128 µM: MBIC ([5]; ATCC CRM 9027, 24 h) | MIC ([6]; ATCC CRM 10231)
2 µM: MIC ([16]; ATCC BAA-2340)
> 512 µM: MBEC ([1]; ATCC CRM 6538, 24 h) | MBEC ([2]; ATCC CRM 8739, 24 h) | MBEC ([3]; ATCC CRM 43816, 24 h) | MBEC ([5]; ATCC CRM 9027, 24 h) | MBEC ([11]; NCTC 12697, 24 h)
256 µM: MBC ([6]; ATCC CRM 10231)
64 µM: MBC ([9]; B042 V2E1 A)
32 µM: MBC ([4]; ATCC CRM 9027) | MIC ([4]; ATCC CRM 9027) | MIC ([9]; B042 V2E1 A) | MBIC ([11]; NCTC 12697, 24 h) | MBC ([14]; NCTC 12697) | MIC ([14]; NCTC 12697)
8 µM: MBIC ([1]; ATCC CRM 6538, 24 h) | MBC ([12]; ATCC CRM 12493) | MIC ([12]; ATCC CRM 12493)

CC[C@H](C)[C@H](NC(=O)[C@H](CCCCN)NC(=O)[C@@H](NC(=O)[C@H](CO)NC(=O)[C@H](CC(N)=O)NC(=O)[C@H](Cc1c[nH]c2ccccc12)NC(=O)[C@H](CC(C)C)NC(=O)CN)[C@@H](C)CC)C(=O)N[C@@H](C)C(=O)NCC(=O)N[C@@H](CCCCN)C(=O)N[C@@H](CCCCN)C(=O)N[C@@H](CC(C)C)C(=O)N[C@@H](Cc1ccccc1)C(=O)N[C@H](C(=O)N[C@@H](CC(N)=O)C(=O)N[C@H](C(=O)N[C@@H](CC(C)C)C(=O)N[C@@H](CC(=O)O)C(=O)N[C@@H](CCCCN)C(=O)N[C@H](C(=O)N[C@@H](CCCNC(=N)N)C(=O)N[C@H]1CSSC[C@@H](C(=O)O)NC(=O)CNC(=O)CNC(=O)[C@H](C)NC(=O)[C@H](C(C)C)NC(=O)[C@H](CCCCN)NC1=O)[C@@H](C)CC)C(C)C)C(C)C [GL-29] (HELM PEPTIDE1{G.L.W.N.S.I.K.I.A.G.K.K.L.F.V.N.V.L.D.K.I.R.C.K.V.A.G.G.C}$PEPTIDE1,PEPTIDE1,23:R3-29:R3$$$V2.0; N-terminus and C-terminus assumed; bridges inferred)
256 µM: MBC ([6]; ATCC CRM 10231)
2 µM: MBC ([13]; B038 V1S1 A) | MIC ([13]; B038 V1S1 A) | MIC ([15]; ATCC CRM 8739) | MIC ([16]; ATCC BAA-2340)
128 µM: MBEC ([1]; ATCC CRM 6538, 24 h) | MBEC ([2]; ATCC CRM 8739, 24 h) | MIC ([6]; ATCC CRM 10231)
> 512 µM: MBEC ([3]; ATCC CRM 43816, 24 h) | MBEC ([5]; ATCC CRM 9027, 24 h) | MBEC ([11]; NCTC 12697, 24 h)
4 µM: MBIC ([1]; ATCC CRM 6538, 24 h) | MBIC ([2]; ATCC CRM 8739, 24 h) | MBC ([7]; ATCC BAA-1705) | MIC ([7]; ATCC BAA-1705) | MBC ([9]; B042 V2E1 A) | MIC ([9]; B042 V2E1 A) | MBC ([10]; ATCC CRM 6538) | MIC ([10]; ATCC CRM 6538) | MBC ([15]; ATCC CRM 8739) | MBC ([16]; ATCC BAA-2340)
16 µM: MBIC ([3]; ATCC CRM 43816, 24 h) | MBC ([4]; ATCC CRM 9027) | MIC ([4]; ATCC CRM 9027) | MBIC ([11]; NCTC 12697, 24 h) | MIC ([14]; NCTC 12697)
8 µM: MBC ([8]; ATCC CRM 43816) | MIC ([8]; ATCC CRM 43816) | MBC ([12]; ATCC CRM 12493) | MIC ([12]; ATCC CRM 12493)
32 µM: MBC ([14]; NCTC 12697)
64 µM: MBIC ([5]; ATCC CRM 9027, 24 h)
